The values that follow come from patent publication US11560545B2, “Polymeric carriers and methods” (The Brigham and Women's Hospital, Inc., priority 2017, dated 2023).

For data set [1], the system named is 3T3 fibroblasts. The data set is described as follows: in vitro cytotoxicity by MTT assay. Type of data set: cell-based.
Data set [2] relates to human mesenchymal stem cells (hMSC). The data set is described as follows: DTT / digestion solution cytotoxicity to hMSC. It is filed as cell-based. As to conditions: short exposure (<30 minutes), high concentration of DTT (50 mM). On the procedure: Also, the DTT cytotoxicity to human mesenchymal stem cells (hMSC) was studied, as depicted at FIG. 3C. […], hMSC presented low viability—80% to 85%—at the high concentration of DTT (50 mM).

Data set [3] deals with hMSCs. The data set is described as follows: cell viability after full digestion with digestion agents. As to conditions: 0.015 M sodium citrate solutions. On the procedure:
The cell viability was calculated after full digestion due to the concern of potential cytotoxicity from the digestion agents.

On to `O[C@H](CS)[C@H](O)CS` (racemic) [DTT, dithiothreitol], for which the “cytotoxicity (MTT)” value is “significant cytotoxicity” in data set [1] (50 mM DTT solution); “no significant cytotoxicity” in data set [1] (low concentration 1 mM, compared to DPBS); “no significant cytotoxicity” in data set [1] (working concentration 10 mM, compared to DPBS). Moreover, the hMSC tolerance entry in data set [2] is “tolerant”.

For the compound `O=C([O-])CC(O)(CC(=O)[O-])C(=O)[O-].[Na+].[Na+].[Na+]` [sodium citrate], the “cytotoxicity to hMSCs” value in data set [3] is listed as “certain level of cytotoxicity”.
